From PMC9798004 (Frontiers in Psychiatry, 2022)
No end group written: not given here.

What was measured:
[1] = target: HRH2 (Homo sapiens, UniProt P25021); experiment: PathHunter β-arrestin assay; assay type: cell-based; conditions: control agonist
[2] = target: HRH4 (Homo sapiens, UniProt Q9H3N8); conditions: screen, control agonist; U20S, 37C, 4HR
[3] = target: T1, MTNR1A (Homo sapiens, UniProt P48039); experiment: PathHunter β-arrestin assay; assay type: cell-based; conditions: screen, control agonist; CHO, 37C, 2HR
T1 construct: purchased Eurofins DiscoverX (PathHunter gpcrMAX)

[4] = target: OXTR (Homo sapiens, UniProt P30559); experiment: PathHunter β-arrestin assay; assay type: cell-based; conditions: follow-up assays, control antagonist
[5] = target: T2, NPBWR1 (Homo sapiens, UniProt P48145); experiment: PathHunter β-arrestin assay; assay type: cell-based; conditions: screen, control agonist; CHO, RT, 2HR
T2 construct: purchased Eurofins DiscoverX (PathHunter gpcrMAX)
T2 sequence (P48145 1-328): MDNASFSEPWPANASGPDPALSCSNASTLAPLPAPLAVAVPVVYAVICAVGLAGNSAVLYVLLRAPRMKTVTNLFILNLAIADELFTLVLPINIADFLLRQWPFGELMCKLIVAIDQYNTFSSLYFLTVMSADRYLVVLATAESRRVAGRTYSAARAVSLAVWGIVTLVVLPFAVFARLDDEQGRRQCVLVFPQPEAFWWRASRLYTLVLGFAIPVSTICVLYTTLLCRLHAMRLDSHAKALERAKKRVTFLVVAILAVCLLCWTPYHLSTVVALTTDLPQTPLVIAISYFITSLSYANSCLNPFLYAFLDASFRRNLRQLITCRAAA

[6] = target: T3, NPBWR2 (Homo sapiens, UniProt P48146); experiment: PathHunter β-arrestin assay; assay type: cell-based; conditions: screen, control agonist; CHO, 37C, 2HR
T3 construct: purchased Eurofins DiscoverX (PathHunter gpcrMAX)

[7] = target: UTR2 (Homo sapiens, UniProt Q9UKP6); experiment: PathHunter β-arrestin assay; assay type: cell-based; conditions: follow-up assays, control antagonist
[8] = target: T4, NMU1R (Homo sapiens, UniProt Q9HB89); experiment: PathHunter β-arrestin assay; assay type: cell-based; conditions: screen, control agonist; U2OS, 37C, 2HR
T4 construct: purchased Eurofins DiscoverX (PathHunter gpcrMAX)
T4 sequence (Q9HB89 1-426): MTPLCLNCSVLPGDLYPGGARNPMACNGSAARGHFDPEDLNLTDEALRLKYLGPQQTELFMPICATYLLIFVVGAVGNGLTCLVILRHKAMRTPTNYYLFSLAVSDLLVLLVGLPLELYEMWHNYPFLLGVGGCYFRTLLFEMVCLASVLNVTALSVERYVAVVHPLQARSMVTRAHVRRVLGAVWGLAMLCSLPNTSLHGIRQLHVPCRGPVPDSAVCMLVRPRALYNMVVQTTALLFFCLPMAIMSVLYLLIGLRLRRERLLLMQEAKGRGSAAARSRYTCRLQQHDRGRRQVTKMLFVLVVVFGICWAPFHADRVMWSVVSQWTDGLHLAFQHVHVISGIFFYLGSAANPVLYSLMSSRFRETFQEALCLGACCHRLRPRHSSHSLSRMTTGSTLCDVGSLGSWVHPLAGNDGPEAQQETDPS

[9] = target: T5, GRPR (Homo sapiens, UniProt P30550); experiment: PathHunter β-arrestin assay; assay type: cell-based; conditions: control agonist
T5 construct: purchased Eurofins DiscoverX (PathHunter gpcrMAX)
Description: (§1) Follow up experiments were prioritized based on the difference between S/N and CoV. Targets with a >5-fold difference between S/N and CoV were investigated for their potential contribution to the AMB-FUBINACA toxidrome with 10-point concentration-response curves generated in technical replicate (range 1.5–30 μM) using the EC80 of the relevant agonist, where applicable in antagonist mode. Simultaneous agonist and antagonist curves were run in parallel to ensure reliability of the assay (see Supplementary Table 2), with both RC50 and signal to background aligning with historical averages, and Z' >0.5. RC50 was estimated using a four-parameter fit (CBIS Data Analysis Suite, ChemInnovation, San Diego, CA) on normalized data.

[10] = target: HCRTR2 (Homo sapiens, UniProt O43614); experiment: PathHunter β-arrestin assay; assay type: cell-based; conditions: follow-up assays, control antagonist
[11] = target: T6, HCRTR1 (Homo sapiens, UniProt O43613); experiment: PathHunter β-arrestin assay; assay type: cell-based; conditions: follow-up assays, control antagonist
T6 sequence (O43613 1-425): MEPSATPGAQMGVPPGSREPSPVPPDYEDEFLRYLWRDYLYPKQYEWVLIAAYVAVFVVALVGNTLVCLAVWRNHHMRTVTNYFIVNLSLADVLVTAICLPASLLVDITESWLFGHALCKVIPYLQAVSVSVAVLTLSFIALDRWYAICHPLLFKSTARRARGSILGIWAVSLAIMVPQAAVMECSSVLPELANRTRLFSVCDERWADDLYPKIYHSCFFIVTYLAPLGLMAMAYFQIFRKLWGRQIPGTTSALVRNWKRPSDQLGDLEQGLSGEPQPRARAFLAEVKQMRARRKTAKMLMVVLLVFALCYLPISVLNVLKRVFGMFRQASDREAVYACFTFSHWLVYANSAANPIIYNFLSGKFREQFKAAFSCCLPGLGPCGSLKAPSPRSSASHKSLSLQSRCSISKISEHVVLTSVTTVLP
Description: as §1

[12] = target: T7, MLNR (Homo sapiens, UniProt O43193); experiment: PathHunter β-arrestin assay; assay type: cell-based; conditions: screen, control agonist; CHO, 37C, 2HR
T7 construct: purchased Eurofins DiscoverX (PathHunter gpcrMAX)

[13] = target: T8, CCR10 (Homo sapiens, UniProt P46092); experiment: PathHunter β-arrestin assay; assay type: cell-based; conditions: control agonist
T8 sequence (P46092 1-362): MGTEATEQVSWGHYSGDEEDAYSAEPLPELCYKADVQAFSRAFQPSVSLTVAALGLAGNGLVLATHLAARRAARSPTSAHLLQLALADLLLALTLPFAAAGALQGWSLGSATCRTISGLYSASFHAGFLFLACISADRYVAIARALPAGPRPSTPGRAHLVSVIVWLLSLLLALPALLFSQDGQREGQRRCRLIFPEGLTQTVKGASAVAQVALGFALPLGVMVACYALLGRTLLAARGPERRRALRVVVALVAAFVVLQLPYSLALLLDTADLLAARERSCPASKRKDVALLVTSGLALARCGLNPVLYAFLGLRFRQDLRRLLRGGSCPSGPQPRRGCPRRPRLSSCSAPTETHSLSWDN
Description: as §1

[14] = follow-up concentration-response assays

Chain of HRH2 (P25021 whole entry): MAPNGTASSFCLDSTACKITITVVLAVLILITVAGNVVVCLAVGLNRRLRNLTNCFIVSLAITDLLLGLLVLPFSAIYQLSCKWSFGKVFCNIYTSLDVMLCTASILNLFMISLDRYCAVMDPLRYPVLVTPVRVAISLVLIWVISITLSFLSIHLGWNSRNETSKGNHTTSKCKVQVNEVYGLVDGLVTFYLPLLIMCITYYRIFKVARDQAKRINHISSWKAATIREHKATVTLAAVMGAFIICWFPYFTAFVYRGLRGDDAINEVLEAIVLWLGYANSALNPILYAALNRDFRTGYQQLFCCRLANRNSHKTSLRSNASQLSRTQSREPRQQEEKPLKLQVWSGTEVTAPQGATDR
T5 sequence (P30550 whole entry): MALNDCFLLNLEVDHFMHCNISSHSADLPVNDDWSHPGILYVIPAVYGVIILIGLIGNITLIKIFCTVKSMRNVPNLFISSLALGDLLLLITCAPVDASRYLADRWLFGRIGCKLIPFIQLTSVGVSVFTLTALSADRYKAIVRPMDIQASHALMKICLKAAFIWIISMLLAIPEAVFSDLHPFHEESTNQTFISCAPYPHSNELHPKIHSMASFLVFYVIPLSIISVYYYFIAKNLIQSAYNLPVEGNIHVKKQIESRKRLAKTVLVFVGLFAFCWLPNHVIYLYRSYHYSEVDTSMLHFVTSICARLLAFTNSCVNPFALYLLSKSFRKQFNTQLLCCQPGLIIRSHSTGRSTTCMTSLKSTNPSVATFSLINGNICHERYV
T7 sequence (O43193 whole entry): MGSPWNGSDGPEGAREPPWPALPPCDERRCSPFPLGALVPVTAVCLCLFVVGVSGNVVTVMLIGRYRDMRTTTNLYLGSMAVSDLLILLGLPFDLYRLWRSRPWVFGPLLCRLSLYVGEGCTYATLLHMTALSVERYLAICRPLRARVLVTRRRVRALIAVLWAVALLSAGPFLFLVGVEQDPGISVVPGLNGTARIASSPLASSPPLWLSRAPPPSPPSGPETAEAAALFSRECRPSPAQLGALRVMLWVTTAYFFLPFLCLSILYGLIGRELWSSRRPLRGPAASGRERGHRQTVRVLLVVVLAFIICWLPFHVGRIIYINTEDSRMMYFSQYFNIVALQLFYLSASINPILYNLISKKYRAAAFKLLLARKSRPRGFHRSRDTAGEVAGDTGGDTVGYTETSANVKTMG
T1 sequence (P48039 whole entry): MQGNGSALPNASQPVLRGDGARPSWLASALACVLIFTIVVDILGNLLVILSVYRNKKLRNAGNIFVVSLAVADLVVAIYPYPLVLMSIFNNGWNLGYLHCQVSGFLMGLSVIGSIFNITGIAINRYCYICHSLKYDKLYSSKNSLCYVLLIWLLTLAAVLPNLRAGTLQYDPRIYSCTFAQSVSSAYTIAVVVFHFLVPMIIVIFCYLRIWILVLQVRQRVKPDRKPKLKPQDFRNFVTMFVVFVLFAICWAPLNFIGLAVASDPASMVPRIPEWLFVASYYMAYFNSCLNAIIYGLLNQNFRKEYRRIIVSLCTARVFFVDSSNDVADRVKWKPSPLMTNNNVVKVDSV
Chain of HCRTR2 (O43614 whole entry): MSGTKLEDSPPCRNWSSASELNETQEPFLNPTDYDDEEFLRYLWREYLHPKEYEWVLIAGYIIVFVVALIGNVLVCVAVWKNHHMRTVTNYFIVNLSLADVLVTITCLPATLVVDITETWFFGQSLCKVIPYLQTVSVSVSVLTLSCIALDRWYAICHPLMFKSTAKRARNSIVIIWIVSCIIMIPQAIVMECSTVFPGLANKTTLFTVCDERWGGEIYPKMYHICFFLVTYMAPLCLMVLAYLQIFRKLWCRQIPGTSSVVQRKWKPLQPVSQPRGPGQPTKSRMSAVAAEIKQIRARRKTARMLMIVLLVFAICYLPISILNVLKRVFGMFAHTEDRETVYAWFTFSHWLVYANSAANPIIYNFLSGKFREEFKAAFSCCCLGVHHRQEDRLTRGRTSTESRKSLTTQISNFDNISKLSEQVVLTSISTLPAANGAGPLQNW
Chain of OXTR (P30559 whole entry): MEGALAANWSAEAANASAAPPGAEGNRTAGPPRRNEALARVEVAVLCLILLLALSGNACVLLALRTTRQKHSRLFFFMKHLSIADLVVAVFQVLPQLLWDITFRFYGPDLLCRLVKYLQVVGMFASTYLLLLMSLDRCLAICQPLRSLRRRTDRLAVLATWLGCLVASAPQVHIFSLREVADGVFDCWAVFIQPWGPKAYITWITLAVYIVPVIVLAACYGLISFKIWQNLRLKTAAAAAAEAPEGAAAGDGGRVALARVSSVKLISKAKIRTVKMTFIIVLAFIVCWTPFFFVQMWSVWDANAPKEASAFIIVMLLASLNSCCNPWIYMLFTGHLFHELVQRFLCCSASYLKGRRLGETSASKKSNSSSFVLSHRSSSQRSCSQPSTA
Chain of UTR2 (Q9UKP6 whole entry): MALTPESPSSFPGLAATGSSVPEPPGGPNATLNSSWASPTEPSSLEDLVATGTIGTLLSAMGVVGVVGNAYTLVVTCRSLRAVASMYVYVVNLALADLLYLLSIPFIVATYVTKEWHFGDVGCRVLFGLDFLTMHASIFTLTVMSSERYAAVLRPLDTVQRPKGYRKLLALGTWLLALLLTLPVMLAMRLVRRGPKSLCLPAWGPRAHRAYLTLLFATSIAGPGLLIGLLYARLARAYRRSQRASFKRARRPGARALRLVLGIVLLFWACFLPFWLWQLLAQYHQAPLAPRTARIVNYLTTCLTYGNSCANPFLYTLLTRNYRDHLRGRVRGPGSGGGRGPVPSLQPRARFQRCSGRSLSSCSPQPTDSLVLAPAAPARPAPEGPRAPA
T3 sequence (P48146 whole entry): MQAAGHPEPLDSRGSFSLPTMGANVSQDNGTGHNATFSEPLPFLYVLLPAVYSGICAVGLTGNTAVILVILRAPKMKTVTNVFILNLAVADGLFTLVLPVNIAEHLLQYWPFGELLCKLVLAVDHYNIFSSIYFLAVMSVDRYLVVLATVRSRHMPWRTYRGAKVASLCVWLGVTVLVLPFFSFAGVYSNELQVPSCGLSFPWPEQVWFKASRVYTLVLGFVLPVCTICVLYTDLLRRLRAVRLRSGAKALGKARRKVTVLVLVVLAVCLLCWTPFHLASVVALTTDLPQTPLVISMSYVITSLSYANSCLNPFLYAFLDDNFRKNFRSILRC
Chain of HRH4 (Q9H3N8 whole entry): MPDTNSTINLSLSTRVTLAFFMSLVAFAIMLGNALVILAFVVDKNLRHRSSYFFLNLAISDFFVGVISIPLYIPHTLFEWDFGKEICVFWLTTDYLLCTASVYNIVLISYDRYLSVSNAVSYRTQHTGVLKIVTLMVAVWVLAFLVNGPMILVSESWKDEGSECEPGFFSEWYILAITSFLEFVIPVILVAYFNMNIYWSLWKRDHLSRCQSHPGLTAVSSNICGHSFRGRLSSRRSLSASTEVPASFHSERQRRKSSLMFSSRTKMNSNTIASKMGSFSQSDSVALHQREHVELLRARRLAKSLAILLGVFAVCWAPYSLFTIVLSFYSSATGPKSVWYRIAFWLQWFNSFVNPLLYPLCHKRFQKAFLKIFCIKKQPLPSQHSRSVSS

Molecule: NCCc1c[nH]cn1 [Histamine]
- EC80 [1, 14]: 10722 nM
- EC80 ([1]; screen, CHO, RT, 2HR): 10700 nM
- EC80 [2]: 102 nM

Molecule: COc1ccc2[nH]c(I)c(CCNC(C)=O)c2c1 [2-Iodomelatonin]
- EC80 [3]: 2.77 nM

Molecule: Cc1ccccc1N1CCN(S(=O)(=O)C[C@]23CC[C@H](C[C@@H]2NC(=O)[C@@H](N)CCS(C)(=O)=O)C3(C)C)CC1 [L-368,899]
- IC50 [4]: 7.39 nM

Molecule: Neuropeptide W23 (WYKHVASPRYHTVGRAAGLLMGL; Neuropeptide W-23; UniProt Q8N729 33-55, looked up) [control agonist]
- EC80 [5]: 8.1 nM
- EC80 [6]: 4.04 nM

Molecule: COc1cc(Br)c(S(=O)(=O)Nc2ccc(Cl)c(O[C@@H]3CCN(C)C3)c2)cc1OC [SB 657510]
- IC50 [7]: 122 nM

Molecule: Neuromedin U-25 (FRVDEEFQSPFASQSRGYFLFRPRN; ends and bridges not checked; UniProt P48645 142-166, looked up) [control agonist]
- EC80 [8]: 3.63 nM

Molecule: GRP: control agonist for GRPR (VPLPAGGGTVLTKMYPRGNHWAVGHLM; not fully specified (C-terminus); UniProt P07492 24-50, looked up)
- EC80 [9, 14]: 1.95 nM
- EC80 ([9]; screen, U20S, 37C, 2HR): 5.85 nM

Molecule: Cc1cc(NC(=O)Nc2ccc(N(C)C)cc2)c2cc(F)cc(F)c2n1 [SB 408124]
- IC50 [10]: 11500 nM
- IC50 [11]: 74.4 nM

Molecule: Motilin
- EC80 [12]: 5.69 nM

B1: CCL27: control agonist (protein, UniProt Q9Y4X3 25-112, looked up)
C-C motif chemokine 27: FLLPPSTACCTQLYRKPLSDKLLRKVIQVELQEADGDCHLQAFVLHLAQRSICIHPQNPSLSQWFEHQERKLHGTLPKLNFGMLRKMG
- EC80 [13, 14]: 90.49 nM
- EC80 ([13]; screen, U2OS, 37C, 2HR): 30.2 nM
